Results published in patent US20260365628A1, “SUBSTITUTED 3,4-DIHYDROQUINOLINONE INHIBITORS OF TSHR” (Septerna, Inc., priority 2022, published 2026).
pIC50: −log10 of the molar value.

The molecules below were run against T1, hTSHR (Homo sapiens, UniProt P16473) (assay: hTSHR TR-FRET cAMP Assay (inhibition of M22-stimulated cAMP production)). Settings: Expi293F Inducible cells stably expressing hTSHR; cAMP HTRF; stimulated with EC80 of anti-TSHR antibody M22; 15 min compound preincubation, 30 min at 37° C.; read-out: Activity (IC50 bins).
T1 construct: expressed in transfected cells
Assay type: cell-based
In short: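 Readout was a cAMP HTRF ratio of 655/620 nm after lysis, scaled between the EC80 M22 signal (0% inhibition) and no-agonist vehicle (100%). Frozen induced Expi293F-hTSHR cells saw test compounds (0.5% DMSO) for 15 min at 37 °C before 30 min of M22 stimulation at EC80.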

T1 sequence (P16473 21-764): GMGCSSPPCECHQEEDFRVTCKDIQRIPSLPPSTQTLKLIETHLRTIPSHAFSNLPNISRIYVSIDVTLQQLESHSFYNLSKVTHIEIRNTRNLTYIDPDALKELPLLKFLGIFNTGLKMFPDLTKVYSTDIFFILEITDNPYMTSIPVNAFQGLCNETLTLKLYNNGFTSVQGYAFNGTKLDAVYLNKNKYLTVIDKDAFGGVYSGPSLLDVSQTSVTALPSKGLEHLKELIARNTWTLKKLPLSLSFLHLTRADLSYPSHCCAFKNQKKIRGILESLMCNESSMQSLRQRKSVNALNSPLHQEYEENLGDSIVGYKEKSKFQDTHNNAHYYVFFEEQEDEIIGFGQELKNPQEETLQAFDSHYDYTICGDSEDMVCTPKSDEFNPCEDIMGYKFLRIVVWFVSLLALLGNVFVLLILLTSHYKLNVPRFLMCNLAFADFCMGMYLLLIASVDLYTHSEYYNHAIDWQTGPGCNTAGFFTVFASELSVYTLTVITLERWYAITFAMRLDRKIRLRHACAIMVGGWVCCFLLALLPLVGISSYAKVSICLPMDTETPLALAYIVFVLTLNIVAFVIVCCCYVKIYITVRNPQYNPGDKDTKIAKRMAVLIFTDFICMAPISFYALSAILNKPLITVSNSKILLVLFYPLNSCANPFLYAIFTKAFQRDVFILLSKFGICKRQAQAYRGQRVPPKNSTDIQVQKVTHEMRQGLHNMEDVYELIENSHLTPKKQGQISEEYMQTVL

SMILES | pIC50
C[C@H]1Oc2cc(NC(=O)NC3CCC(F)(F)CC3)ccc2N(Cc2cccc(C(F)(F)F)n2)C1=O [Example 235, (R)-1-(4,4-difluorocyclohexyl)-3-(2-methyl-3-oxo-4-((6-(trifluoromethyl)pyridin-2-yl)methyl)-3,4-dihydro-2H-benzo[b][1,4]oxazin-7-yl)urea] | 6.00 to 7.00
C[C@H]1Oc2cc(NC(=O)NC(C)(C)CCO)ccc2N(Cc2ccccc2)C1=O [Example 236, (R)-1-(4-benzyl-2-methyl-3-oxo-3,4-dihydro-2H-benzo[b][1,4]oxazin-7-yl)-3-(4-hydroxy-2-methylbutan-2-yl)urea] | 6.00 to 7.00
C[C@H]1Oc2cc(NC(=O)NC3CCCC3)ccc2N(Cc2ccccc2)C1=O [Example 237, (R)-1-(4-benzyl-2-methyl-3-oxo-3,4-dihydro-2H-benzo[b][1,4]oxazin-7-yl)-3-cyclopentylurea] | > 7.00
C[C@H]1Oc2cc(NC(=O)NC(C)(C)[C@H]3C[C@@H](O)C3)ccc2N(Cc2ccccc2)C1=O [Example 238] | < 6.00
CC(C)(O)CNC(=O)Nc1ccc2c(c1)ncc(=O)n2Cc1cccc(OC(F)(F)F)c1 [Example 239, 1-(2-hydroxy-2-methylpropyl)-3-(2-oxo-1-(3-(trifluoromethoxy)benzyl)-1,2-dihydroquinoxalin-6-yl)urea] | < 6.00
CC(C)(C)CNC(=O)Nc1ccc2c(c1)ncc(=O)n2Cc1cccc(OC(F)(F)F)c1 [Example 240, 1-neopentyl-3-(2-oxo-1-(3-(trifluoromethoxy)benzyl)-1,2-dihydroquinoxalin-6-yl)urea] | 6.00 to 7.00
CC(C)(C#N)CNC(=O)Nc1ccc2c(c1)ncc(=O)n2Cc1cccc(OC(F)(F)F)c1 [Example 241, 1-(2-cyano-2-methylpropyl)-3-(2-oxo-1-(3-(trifluoromethoxy)benzyl)-1,2-dihydroquinoxalin-6-yl)urea] | < 6.00
CC(C)(CO)CNC(=O)Nc1ccc2c(c1)ncc(=O)n2Cc1cccc(OC(F)(F)F)c1 [Example 242, 1-(3-hydroxy-2,2-dimethylpropyl)-3-(2-oxo-1-(3-(trifluoromethoxy)benzyl)-1,2-dihydroquinoxalin-6-yl)urea] | < 6.00
CC(C)(CC(F)(F)F)NC(=O)Nc1ccc2c(c1)ncc(=O)n2Cc1cccc(OC(F)(F)F)c1 [Example 243, 1-(2-oxo-1-(3-(trifluoromethoxy)enzyl)-1,2-dihydroquinoxalin-6-yl)-3-(4,4,4-trifluoro-2-methylbutan-2-yl)urea] | 6.00 to 7.00
CC(C)(CNC(=O)Nc1ccc2c(c1)ncc(=O)n2Cc1cccc(OC(F)(F)F)c1)C(F)(F)F [Example 244, 1-(2-oxo-1-(3-(trifluoromethoxy)benzyl)-1,2-dihydroquinoxalin-6-yl)-3-(3,3,3-trifluoro-2,2-dimethylpropyl) urea] | 6.00 to 7.00
CC(C)(CC#N)NC(=O)Nc1ccc2c(c1)ncc(=O)n2Cc1cccc(OC(F)(F)F)c1 [Example 245, 1-(1-cyano-2-methylpropan-2-yl)-3-(2-oxo-1-(3-(trifluoromethoxy)enzyl)-1,2-dihydroquinoxalin-6-yl)urea] | < 6.00
CC(c1cccc(C2CCC2)c1)n1c(=O)cnc2cc(NC(=O)NC(C)(C)C)ccc21 (stereo not shown) [Example 246, 1-(tert-butyl)-3-(1-(1-(3-cyclobutylphenyl)ethyl)-2-oxo-1,2-dihydroquinoxalin-6-yl)urea] | 6.00 to 7.00
CC(c1cc(F)cc(OC(F)(F)F)c1)n1c(=O)cnc2cc(NC(=O)NC(C)(C)C)ccc21 (stereo not shown) [Example 247, 1-(tert-butyl)-3-(1-(1-(3-fluoro-5-(tri-fluoromethoxy)phenyl)ethyl)-2-oxo-1,2-dihydro-quinoxalin-6-yl)urea] | 6.00 to 7.00
CC(c1cccc(CCC2COC2)c1)n1c(=O)cnc2cc(NC(=O)NC(C)(C)C)ccc21 (stereo not shown) [Example 248, 1-(tert-butyl)-3-(1-(1-(3-(2-(oxetan-3-yl)ethyl)phenyl)ethyl)-2-oxo-1,2-dihydro-quinoxalin-6-yl)urea] | < 6.00
CC(c1ccc2cnn(CCC(F)(F)F)c2c1)n1c(=O)cnc2cc(NC(=O)NC(C)(C)C)ccc21 (stereo not shown) [Example 249, 1-(tert-butyl)-3-(2-oxo-1-(1-(1-(3,3,3-trifluoropropyl)-1H-indazol-6-yl)ethyl)-1,2-dihydro-quinoxalin-6-yl)urea] | < 6.00
CC(c1cccc(CCOCc2ccncc2)c1)n1c(=O)cnc2cc(NC(=O)NC(C)(C)C)ccc21 (stereo not shown) [Example 250, 1-(tert-butyl)-3-(2-oxo-1-(1-(3-(2-(pyridin-4-ylmethoxy)ethyl)phenyl)ethyl)-1,2-dihydro-quinoxalin-6-yl)urea] | < 6.00
CC(c1cccc2c1cnn2CCC(F)(F)F)n1c(=O)cnc2cc(NC(=O)NC(C)(C)C)ccc21 (stereo not shown) [Example 251, 1-(tert-butyl)-3-(2-oxo-1-(1-(1-(3,3,3-trifluoropropyl)-1H-indazol-4-yl)ethyl)-1,2-dihydro-quinoxalin-6-yl)urea] | < 6.00

The next lines start with the values.

pIC50 | SMILES
< 6.00 | CC(c1cccc2ncccc12)n1c(=O)cnc2cc(NC(=O)NC(C)(C)C)ccc21 (stereo not shown) [Example 252, 1-(tert-butyl)-3-(2-oxo-1-(1-(quinolin-5-yl)ethyl)-1,2-dihydro-quinoxalin-6-yl)urea]
< 6.00 | CC(c1cc(C(F)(F)F)ccn1)n1c(=O)cnc2cc(NC(=O)NC(C)(C)C)ccc21 (stereo not shown) [Example 253, 1-(tert-butyl)-3-(2-oxo-1-(1-(4-(trifluoromethyl)pyridin-2-yl)ethyl)-1,2-dihydro-quinoxalin-6-yl)urea]
6.00 to 7.00 | CC(c1nc(Cl)ccc1Cl)n1c(=O)cnc2cc(NC(=O)NC(C)(C)C)ccc21 (stereo not shown) [Example 254, 1-(tert-butyl)-3-(1-(1-(3,6-dichloropyridin-2-yl)ethyl)-2-oxo-1,2-dihydro-quinoxalin-6-yl)urea]
> 7.00 | C[C@H]1Oc2cc(NC(=O)NC3(C)CCC3)ccc2N([C@@H](C)c2ccccc2)C1=O [Example 255, 1-((R)-2-methyl-3-oxo-4-((S)-1-phenylethyl)-3,4-dihydro-2H-benzo[b][1,4]oxazin-7-yl)-3-(1-methylcyclobutyl)urea]
> 7.00 | C[C@H]1Oc2cc(NC(=O)NC3(C)CCCC3)ccc2N([C@@H](C)c2ccccc2)C1=O [Example 256, 1-((R)-2-methyl-3-oxo-4-((S)-1-phenyl-ethyl)-3,4-dihydro-2H-benzo[b][1,4]oxazin-7-yl)-3-(1-methylcyclopentyl)-urea]
> 7.00 | C[C@H]1Oc2cc(NC(=O)NC3(C(F)(F)F)CCCC3)ccc2N([C@@H](C)c2ccccc2)C1=O [Example 257, 1-((R)-2-methyl-3-oxo-4-((S)-1-phen-ylethyl)-3,4-dihydro-2H-benzo[b][1,4]oxazin-7-yl)-3-(1-(trifluoromethyl)-cyclopentyl)urea]
6.00 to 7.00 | C[C@H]1Oc2cc(NC(=O)NC3CCC(F)(F)CC3)ccc2N([C@@H](C)c2ccccc2)C1=O [Example 258, 1-(4,4-difluoro-cyclohexyl)-3-((R)-2-methyl-3-oxo-4-((S)-1-phenyl-ethyl)-3,4-dihydro-2H-benzo[b][1,4]oxazin-7-yl)urea]
> 7.00 | C[C@H]1Oc2cc(NC(=O)NC3(C(F)(F)F)CCC3)ccc2N([C@@H](C)c2ccccc2)C1=O [Example 259, 1-((R)-2-methyl-3-oxo-4-((S)-1-phenylethyl)-3,4-dihydro-2H-benzo [b][1,4]oxazin-7-yl)-3-(1-(trifluoro-methyl)cyclo-butyl)urea]
